Laboratory results from article PMC12859765, “Phosphatidylcholine with C26:0 moiety, a precursor of a diagnostic marker for X-ALD, is synthesized by LPLAT10/LPEAT2” (Journal of Lipid Research, 2025).

Target: T1, LPLAT8/LPCAT1 (Homo sapiens, UniProt Q8NF37)
T1 construct: transiently expressed in HEK 293T; 100,000 g membrane fraction
T1 sequence (Q8NF37 1-534): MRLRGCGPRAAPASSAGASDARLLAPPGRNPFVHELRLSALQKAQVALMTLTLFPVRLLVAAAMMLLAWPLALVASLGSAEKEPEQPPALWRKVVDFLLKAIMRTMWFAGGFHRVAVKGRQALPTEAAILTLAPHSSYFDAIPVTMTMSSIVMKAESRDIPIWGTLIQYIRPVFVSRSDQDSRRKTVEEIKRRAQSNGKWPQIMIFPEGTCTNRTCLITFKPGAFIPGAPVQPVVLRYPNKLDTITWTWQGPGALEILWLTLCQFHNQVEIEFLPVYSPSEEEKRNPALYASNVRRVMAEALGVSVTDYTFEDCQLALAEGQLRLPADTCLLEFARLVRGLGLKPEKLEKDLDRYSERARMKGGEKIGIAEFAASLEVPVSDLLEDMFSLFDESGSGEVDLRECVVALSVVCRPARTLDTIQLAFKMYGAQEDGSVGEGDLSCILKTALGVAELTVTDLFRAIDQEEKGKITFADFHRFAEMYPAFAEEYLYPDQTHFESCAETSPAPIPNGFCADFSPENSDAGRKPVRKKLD
Assay: LC-MS/MS acyltransferase assay, membrane fraction
Format: biochemical
Settings: pH 7.4, 37 °C

Structure (SMILES) | LC-MS/MS acyltransferase assay, membrane fraction (donor C26:0-CoA 10 µM, LPC 20 µM, labelled compound) | LC-MS/MS acyltransferase assay, membrane fraction (10 µM acyl-CoA, acceptor 2-16:0-d31-LPC 20 µM)
CCCCCCCCCCCCCCCC(=O)O[C@H](CO)COP(=O)([O-])OCC[N+](C)(C)C [2-16:0-d31-LPC] | C26:0-CoA transfer activity was not significantly different between 2-acyl-LPC and 1-acyl-LPC | 
CCCCCCCCCCCCCCCCCCCCCCCCCC(=O)SCCNC(=O)CCNC(=O)[C@H](O)C(C)(C)COP(=O)(O)OP(=O)(O)OC[C@H]1O[C@@H](n2cnc3c(N)ncnc32)[C@H](O)[C@@H]1OP(=O)(O)O [C26:0-CoA] |  | LPLAT8/LPCAT1, which has very high homology with LPLAT10 in terms of amino acid sequence, showed slight activity
